# Laboratory results taken from patent US20050019931A1, “Nucleic acids encoding antifungal drug targets and methods of use” (Elitra Pharmaceuticals, Inc., priority 2002, published 2005).
# How the values were obtained:
# [1] = test system: CaHIS3 (imidazoleglycerol phosphate dehydratase) wild type, heterozygote and GRACE strains; assay: Target level variation whole cell assay: sensitivity of CaHIS3 strains towards 3-aminotriazole; assay type: cell-based, Candida albicans; details: for sensitivity of CaHIS3 GRACE strain minimally expressing CaHIS3 (partial repression, threshold tetracycline): FIG. 6C/6D
# Description: The data derived from these experiments clearly indicate that distinct levels of target gene products synthesized within the pathogen could be directly applied in whole cell assay based drug screens to identify novel antifungal compounds active against novel drug targets validated using the GRACE method.
# 3-AT is a competitive inhibitor of the enzyme encoded by CaHIS3, imidazoleglycerol phosphate dehydratase, and together serve as a model for a drug and drug target respectively. […] The phenotype observed is consistent with that expected in light of the predicted 7.5 fold overexpression of CaHIS3 determined by Northern bolt analysis (see FIG. 5). […] A third CaHIS3 expression level evaluated for differential sensitivity to 3-AT was produced by partial repression of the GRACE CaHIS3 strain using a threshold concentration of tetracycline 0.1% […].
# (§1) Moreover, these experiments clearly indicate how distinct levels of target gene products synthesized within the pathogen could be directly applied in whole cell assay based drug screens to identify novel antifungal compounds against those novel drug targets validated using the GRACE method.
# [2] = test system: bar-coded strains bearing heterozygous mutations in HIS3, TUB 1, ALG7, and ERG 11; details: mixed population; HIS3, TUB 1, ALG7, ERG 11 respectively; cited from earlier work
# [3] = test system: CaERG11 GRACE strain; assay: GRACE strain drug resistance/sensitivity by increasing and decreasing target expression; assay type: cell-based, Candida albicans
# Description: as §1
# [4] = test system: C. albicans; assay: Sensitivity of C. albicans to selection antibiotics (dominant selectable markers); assay type: cell-based, Candida albicans
# Description: Several art-known methods are available to create a heterozygote mutant. In less preferred embodiments, auxotrophic markers, such as but not limited to CaURA3, CaHIS3, CaLEU2, or CaTRP1, could be used for gene disruption if desired. However, the preferred method of heterozygote construction in diploid fungi employs a genetically modified dominant selectable marker. C. albicans is sensitive to the nucleoside-like antibiotic streptothricin at a concentration of 200 micrograms per milliliter. The presence of the Escherichia coli SAT1 gene within C. albicans allows acetylation of the drug rendering it nontoxic and permitting the strain to grow in the presence of streptothricin at a concentration of 200 micrograms per milliliter. Expression of the SAT1 gene in C. albicans is made possible by engineering the gene so that its DNA sequence is altered to conform to the genetic code of this organism and by providing a CaACT1 promoter (Morschhauser et al. (1998) Mol. Gen. Genet. 257:412-420) and a CaPCK1 terminator sequence (Leuker et al. (1997) Gene 192: 235-40). This genetically modified marker is referred to as CaSAT1 which is the subject of a copending United States nonprovisional application, published under the publication no. US20010031724, which is incorporated herein by reference in its entirety. […]
# [5] = test system: CaALG7 GRACE strain; assay: GRACE strain drug resistance/sensitivity by increasing and decreasing target expression; assay type: cell-based, Candida albicans
# Description: as §1
# [6] = inhibitory 3-AT concentration, FIG. 6A
# [7] = intermediate 3-AT concentration, FIG. 6B
molecule,measurement,setting,value
"Nc1nc[nH]n1 [3-AT, 3-aminotriazole]",growth of CaHIS3 heterozygote strain,[1]; [6],completely inhibit growth
same,growth of wild type CaHIS3 strain,[1]; [6],completely inhibit growth
same,phenotype of CaHIS3 GRACE strain overexpressing CaHIS3 (constitutive tetracycline promoter expression),[1]; [6],resistance
same,effect on tetracycline promoter-based overproducing CaHIS3 strain,[1]; [7],unable to effect
same,effect on wild type CaHIS3 strain,[1]; [7],unable to effect
same,sensitivity of heterozygous CaHIS3 strain (haploinsufficient phenotype),[1]; [7],enhanced sensitivity
same,"sensitivity of CaHIS3 GRACE strain minimally expressing CaHIS3 (partial repression, threshold tetracycline)",[1]; intermediate 3-AT concentration,enhanced drug sensitivity relative the heterozygous CaHIS3 strain
same,"sensitivity of CaHIS3 GRACE strain minimally expressing CaHIS3 (partial repression, threshold tetracycline)","[1]; intermediate 3-AT concentration, listed as 3-aminotriazole",hypersensitivity
same,sensitivity of the bar-coded strain heterozygous for the respective drug target versus other heterozygote bar-coded strains,[2],significantly greater sensitivity
OC(Cn1cncn1)(Cn1cncn1)c1ccc(F)cc1F [fluconazole],GRACE strain-specific phenotypes on increasing and decreasing expression of the known drug target,[3],drug resistance and sensitivity phenotypes
same,sensitivity of the bar-coded strain heterozygous for the respective drug target versus other heterozygote bar-coded strains,[2],significantly greater sensitivity
streptothricin,sensitivity of C. albicans,[4]; concentration of 200 micrograms per milliliter,sensitive
CCCCNC(=O)n1c(NC(=O)OC)nc2ccccc21 [benomyl],sensitivity of the bar-coded strain heterozygous for the respective drug target versus other heterozygote bar-coded strains,[2],significantly greater sensitivity
tunicamycin,GRACE strain-specific phenotypes on increasing and decreasing expression of the known drug target,[5],drug resistance and sensitivity phenotypes
same,sensitivity of the bar-coded strain heterozygous for the respective drug target versus other heterozygote bar-coded strains,[2],significantly greater sensitivity
CN(CC[C@H](N)CC(=O)N[C@H]1C=C[C@H](n2ccc(N)nc2=O)O[C@@H]1C(=O)O)C(=N)N [blasticidin],sensitivity of C. albicans,[4]; concentration not given,sensitive
